Experimental data published in patent US5436254A, “Carbostyril derivatives” (Otsuka Pharmaceutical Company, Ltd., priority 1989, dated 1995).

Target: V1 receptor (Rattus norvegicus, UniProt P30560)
Experiment: biochemical
Format: binding
Procedure: Experiment 1: V1 receptor binding assay
Using rat liver plasma membrane preparations prepared according to Ichihara's method [cf: Akira Ichihara, J. Bio. Chem., 258 9283 (1983)], the plasma membrane (50000 dpm, 2×10^-10 M) of [H]^3 -Arg-vasopressin and a test compound (100 ng, 10^-7 -10^-4 M) are incubated at 37° C. for 10 minutes in 100 mM Tris-HCl buffer pH: 8.0 (250 μl) containing 5 mM MgCl2, 1 mM EDTA and 0.1% BSA. After incubation, the mixture is filtered three times using the glass filter (GF/F) so as to separate the membrane preparation combining with vasopressin and then washed with the buffer (5 ml). This glass filter is taken out and mixed with liquid scintillation cocktail. The amount of [H]^3 -vasopressin combining with the membrane is measured by liquid scintillation counter and the rate of the inhibitory effect of the test compound is estimated according to the following equation. [formula] C^1 : The amount of [H]^3 -vasopressin combining with the membrane in the presence of the test compound (known amount).
C^0 : The amount of [H]^3 -vasopressin combining with the membrane in the absence of the test compound.
B^1 : The amount of [H]^3 -vasopressin combining with the membrane in the presence of the excess amount of vasopressin (10^-6 M).

Sequence of V1 receptor (P30560 whole entry): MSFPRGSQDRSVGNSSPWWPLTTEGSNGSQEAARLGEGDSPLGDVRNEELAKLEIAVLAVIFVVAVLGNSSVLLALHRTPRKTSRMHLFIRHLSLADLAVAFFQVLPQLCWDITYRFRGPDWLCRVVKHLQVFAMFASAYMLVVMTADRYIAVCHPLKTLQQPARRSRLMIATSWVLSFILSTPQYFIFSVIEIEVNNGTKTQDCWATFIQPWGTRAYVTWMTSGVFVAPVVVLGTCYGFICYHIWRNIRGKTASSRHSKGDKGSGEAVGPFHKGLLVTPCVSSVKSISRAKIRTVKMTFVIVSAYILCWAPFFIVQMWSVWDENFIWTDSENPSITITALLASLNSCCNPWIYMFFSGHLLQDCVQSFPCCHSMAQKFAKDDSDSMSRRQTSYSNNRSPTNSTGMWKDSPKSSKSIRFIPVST

SMILES	IC50
C=CCNCC(=O)NCCCCCOc1ccc(C(=O)N2CCC(N3C(=O)CCc4ccccc43)CC2)cc1 [Example 251]	98 nM
O=C(CN1CCCC1)NCCCCCOc1ccc(C(=O)N2CCC(N3C(=O)CCc4ccccc43)CC2)cc1 [Example 252, 1-{1-(4-[5-(2-(1-Pyrrolidinyl)acetylamino)pentyloxy]benzoyl)-4-piperidinyl}-3,4-dihydrocarbostyril]	86 nM
O=C(CN1CCOCC1)NCCCCCOc1ccc(C(=O)N2CCC(N3C(=O)CCc4ccccc43)CC2)cc1 [Example 253, 1-{1-(4-[5-(2-Morpholinoacetylamino)pentyloxy]benzoyl)-4-piperidinyl}-3,4-dihydrocarbostyril]	180 nM
CN1CCN(CC(=O)NCCCCCOc2ccc(C(=O)N3CCC(N4C(=O)CCc5ccccc54)CC3)cc2)CC1 [Example 254, 1-{1-(4-[5-(2-(4-Methyl-1-piperazinyl)acetylamino)pentyloxy]benzoyl)-4-piperidinyl}-3,4-dihydrocarbostyril]	60 nM
O=C(CN1CCN(c2ccccc2)CC1)NCCCCCOc1ccc(C(=O)N2CCC(N3C(=O)CCc4ccccc43)CC2)cc1 [Example 255, 1-{1-(4-[5-(2-(4-Phenyl-1-piperazinyl)acetylamino)pentyloxy]benzoyl)-4-piperidinyl}-3,4-dihydrocarbostyril]	380 nM
O=C(CNCc1ccccc1)NCCCCCOc1ccc(C(=O)N2CCC(N3C(=O)CCc4ccccc43)CC2)cc1 [Example 256, 1-{1-(4-[5-(2-Benzylaminoacetylamino)pentyloxy]benzoyl)-4-piperidinyl}-3,4-dihydrocarbostyril]	190 nM
CN(CCO)CC(=O)NCCCCCOc1ccc(C(=O)N2CCC(N3C(=O)CCc4ccccc43)CC2)cc1 [Example 257, 1-{1-(4-[5-(2-(N-(2-Hydroxyethyl)-N-methylamino)acetylamino)pentyloxy]benzoyl)-4-piperidinyl}-3,4-dihydrocarbostyril]	200 nM
CN(C)c1ccc(S(=O)(=O)NCCCCCOc2ccc(C(=O)N3CCC(N4C(=O)CCc5ccccc54)CC3)cc2)cc1 [Example 258, 1-{1-(4-[5-(4-Dimethylaminophenylsulfonylamino)pentyloxy]benzoyl)-4-piperidinyl]-3,4-dihydrocarbostyril]	470 nM
CC(=O)Nc1ccc(C(=O)NCCCCCOc2ccc(C(=O)N3CCC(N4C(=O)CCc5ccccc54)CC3)cc2)cc1 [Example 259, 1-{1-(4-[5-(4-Acetylaminobenzoyl)aminopentyloxy]benzoyl)-4-piperidinyl}-3,4'-dihydrocarbostyril]	110 nM
O=C(NCCCCCOc1ccc(C(=O)N2CCC(N3C(=O)CCc4ccccc43)CC2)cc1)C1CCC(O)C(O)C1 (centres unmarked) [Example 260]	150 nM
CC(=O)OC1CCC(C(=O)NCCCCCOc2ccc(C(=O)N3CCC(N4C(=O)CCc5ccccc54)CC3)cc2)CC1OC(C)=O (centres unmarked) [Example 261, 1-{1-(4-[5-(3,4-Diacetoxycyclohexylcarbonyl)aminopentyloxy]benzoyl)-4-piperidinyl}-3,4-dihydrocarbostyril]	120 nM
Nc1ccc(C(=O)NCCCCCOc2ccc(C(=O)N3CCC(N4C(=O)CCc5ccccc54)CC3)cc2)cc1 [Example 262, 1-{1-(4-[5-(4-Aminobenzoyl)aminopentyloxy]benzoyl)-4-piperidinyl}-3,4-dihydrocarbostyril]	93 nM
O=C(c1ccc(OCCCCCNS(=O)(=O)c2ccc([N+](=O)[O-])cc2)cc1)N1CCC(N2C(=O)CCc3ccccc32)CC1 [Example 263, 1-{1-(4-[5-(4-Nitrophenylsulfonyl)aminopentyloxy]benzoyl)-4-piperidinyl}-3,4-dihydrocarbostyril]	360 nM
Nc1ccc(S(=O)(=O)NCCCCCOc2ccc(C(=O)N3CCC(N4C(=O)CCc5ccccc54)CC3)cc2)cc1 [Example 264, 1-{1-(4-[5-(4-Aminophenylsulfonyl)aminopentyloxy]benzoyl)-4-piperidinyl}-3,4-dihydrocarbostyril]	160 nM
